Experiments:
RPE cells [1] = experiment: Cell size / morphology (rhodamine-phalloidin staining) upon TGF-β1; assay type: cell-based; conditions: 5Z-7-oxozeaenol 1 μM or SB431542 10 μM prior to TGF-β1
Protocol: FIG. 3A: RPE cells were plated on fibronectin-coated glass coverslips, serum-starved for 16 hours, pretreated with 5Z-7-oxozeaenol (1 μM) or SB431542 (10 μM), or DMSO for 1 hour, then treated with or without TGF-β1 for 2 days. Following treatment, the cells were stained with rhodamine-phalloidin (actin fibers-red) and DAPI (blue) and visualized by confocal microscopy. Scale bars: […]. FIG. 3B: Serum-starved RPE cells pretreated with 5Z-7-oxozeaenol (1 μM) or DMSO for 1 hour, and were exposed to TGF-β as in FIG. 3A. Total RNA was extracted at each time point and qPCR was performed. Transcription levels of CTGF were determined after 6 h, 16 h and 24 h. Bars represent the specific mRNA amount relative to GAPDH mRNA in the same samples. All experiments were performed in triplicates. A representative histogram from two independent experiments is shown. FIG. 3C: RPE cells were plated and treated as in FIG. 3A. Following treatment, the cells were immunostained with E-cadherin antibodies (green) and DAPI (blue). Representative photographs of two independent experiments are shown. In addition to the secretion of MMPs and increased migratory capacity, several morphological changes underlie EMT (Lamouille et al., I 2007, 178:437-451). […]

Smad2/3 [2] = experiment: Smad2/3 phosphorylation by immuno-blot in HT29 colon cells; assay type: cell-based; conditions: HT29 Human colon cells, TGF-β treatment, versus untreated cells
Protocol: FIG. 11. Inhibition of TAK1 abolishes the activation of TGF-β cascades in colon cells. TGF-β1 up-regulates-Smad 2/3 and p38 activation via TAK1 activity in colon cells. HT29 Human colon cells were treated with or without 5Z-7-oxozeaenol followed by TGF-β treatment. Smad2/3 and p38 phosphorylation patterns were examined by immuno-blots. HT29 Human colon cells were treated as in the previous examples with or without 5Z-7-oxozeaenol, followed by TGF-β treatment. Inhibition of TAK1 was assayed by observation of Smad2/3 and p38 phosphorylation patterns by immuno-blots.

aortic ring explants = experiment: Aortic ring assay ex vivo; conditions: aortic ring explants in Matrigel, 1 μM, 8 days
Protocol: FIG. 15: TAK1 regulates the fibrotic switch in aortic injury ex vivo. aortic ring explants were seeded in Matrigel with or without 5z-7 (1 μM) for 8 days and then photo-documented. The photographs shown are representative from one of three independent experiments (N=9). As can been in the control aortic ring explants there is growth of sprouts due to the injury/fibrotic process.

p38 = p38 phosphorylation by immuno-blot in RPE cells; assay type: cell-based; conditions: 1 μM for 1 hour then TGF-β 2.5 ng/ml
Protocol: (§1) FIG. 4A-4C: Inhibition of TAK1 abolishes the activation of TGF-β cascades. FIG. 4A: Serum-starved RPE cells were pretreated with or without with 5Z-7-oxozeaenol (1 μM) for 1 hour and then with TGF-β (2.5 ng/ml) for the indicated times. Total protein extracts were analyzed by western blot using the indicated antibodies. […] FIG. 4B: Levels of phospho-Smad2/3 were quantified and normalized to total Smad2/3 FIG. 4C: Statistical analysis of p-p38 and p-Smad3 activation normalized to p38 and Smad3 respectively, with or without TGF-β stimulation. The histograms present results of 5 independent experiments. Statistics were computed using student t-test (Two tailed distribution equal variance). Data is expressed as the Mean±SD. RPE cells were treated with or without 5Z-7-oxozeaenol followed by TGF-β1 treatment and Smad2/3 phosphorylation patterns were examined by immuno-blots. […] Upon TGF-β1 stimulation, the phosphorylation of p38 increased, reaching a peak at 60 min (FIGS. 4A and C).

Smad2/3 [3] = experiment: Smad2/3 phosphorylation by immuno-blot in W2b liver hepatocytes; assay type: cell-based; conditions: 1 μM for 1 hour, TGF-β 2.5 ng/ml
Protocol: FIG. 10: Inhibition of TAK1 abolishes the activation of TGF-β cascades in liver cells. TGF-β1 up-regulates-Smad 2/3 and p38 activation and E-cadherin expression via TAK1 activity in hepatic cells. W2B liver hepatocytes cells were treated with or without 5Z-7-oxozeaenol followed by TGF-β treatment and Smad2/3 and p38 phosphorylation patterns were examined by immuno-blots. W2b liver hepatocytes cells were treated with or without 5Z-7-oxozeaenol (1 μM) for 1 hour followed by TGF-β treatment (2.5 ng/ml) for the indicated times. Smad2/3 and p38 phosphorylation patterns were examined by immuno-blots as described above.

RPE cells [4] = experiment: Collagen lattice contraction upon TNFα stimulation; assay type: cell-based; conditions: 1 μM before 50 ng/ml TNFα, 72 hours
Protocol: FIG. 9: TAK1 regulates RPE cells contraction upon TNFα stimulation. […] RPE cells were seeded in collagen lattices in serum starvation medium. The cells were pretreated with 1 μM 5Z-7 or 1 hour before adding 50 ng/ml TNFα. Lattice were photo-documented after 72 hours and measured using ImajeJ software. The transition of RPE cells to myofibroblasts is characterized, among other aspects, by increased contractile activity (Umazume et al., Invest Ophthalmol Vis Sci 2013, 54:1150-1159; Sakamoto et al., Curr Eye Res 1994, 13:451-459; West-Mays et al., Int J Biochem Cell Biol 2006, 38:1625-1631; Ma et al., Clinical & experimental ophthalmology 2012, 40:e76-86). To examine whether TAK1 is a general regulator of the EMT process affecting cell contractility, floating collagen matrix contraction assay was performed. The test was carried out in full serum with or without TAK1 inhibitor (FIGS. 5A and 5B). While in the control cells significant contraction was observed after 24 hours, reaching 50% of the initial size, TAK1 inhibition impaired the capacity of the cells to contract. The collagen lattice remained nearly 80% from the initial size (FIGS. 5A and B).

Smad2/3 [5] = experiment: Smad2/3 phosphorylation by immuno-blot in RPE cells; assay type: cell-based
Protocol: as §1

COc1cc(O)c2c(c1)/C=C/C[C@H](O)[C@H](O)C(=O)/C=C\C[C@H](C)OC2=O [5Z-7-oxozeaenol]
TGF-β1-induced increase in cell size (hypertrophic RPE cells) (RPE cells [1]): minimal number of hypertrophic RPE cells | Smad2/3 phosphorylation (Smad2/3 [2]): significantly inhibited | fibrotic effect resultant from the injury process (sprout growth) (aortic ring explants): abolish the fibrotic effect | p38 activation (phosphorylation) upon TGF-β1 stimulation (p38): abolished p38 activation | Smad2/3 activation (Smad2/3 [3]): barely detectable | collagen contraction after EMT stimulation by TNFα (RPE cells [4]): significantly reduced collagen contraction | Smad2/3 activation (phospho-Smad2/3) (Smad2/3 [5]; 1 μM for 1 hour then TGF-β 2.5 ng/ml): barely detectable | ratio of phospho-Smad2/3 to total Smad2/3 (Smad2/3 [5]; 1 μM, TGF-β1-stimulated, each time point): abolished Smad2/3 activation

Reference: patent US10206900B2, “Treatments for fibrotic diseases” (MOR RESEARCH APPLICATIONS LTD., priority 2013, dated 2019)
